Measurements taken from the supplement of paper PMC10307832.

Columns and labels:
Assay in all cases: relative viability (nuclei count vs DMSO), 5 days (fraction); higher = more cells survive
AZD1208 + Luminespib = compound: N[C@@H]1CCCN(c2c(/C=C3\SC(=O)NC3=O)cccc2-c2ccccc2)C1 [AZD1208] + CCNC(=O)c1noc(-c2cc(C(C)C)c(O)cc2O)c1-c1ccc(CN2CCOCC2)cc1 [Luminespib] (partner 0.01 µM)
How it was run: (§1)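 Lung cancer cell lines in 1536-well plates were dosed by pin tool the day after seeding, either with one drug alone or with a fixed anchor-drug dose plus five library-drug doses (not always all listed) in √10 steps. After 5 days, cells were fixed and their nuclei stained in one step (final 0.05% Triton X-100, 1% formaldehyde, 1 ug/ml Hoechst), then counted on 4× images. Relative viability is the nuclei count in treated wells divided by that in vehicle wells. Values are medians of duplicate plates.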

AZD1208 + Dasatinib = compound: N[C@@H]1CCCN(c2c(/C=C3\SC(=O)NC3=O)cccc2-c2ccccc2)C1 [AZD1208] + Cc1nc(Nc2ncc(C(=O)Nc3c(C)cccc3Cl)s2)cc(N2CCN(CCO)CC2)n1 [Dasatinib] (partner 0.075 µM)
How it was run: as §1

XMD14-99 + Lapatinib = compound: CN1CCN(CC1)C2=CC(=C(C=C2)NC3=NC(=C(S3)C(=O)C4=C(C=CC=C4Cl)Cl)N)OC [XMD14-99] + CS(=O)(=O)CCNCc1ccc(-c2ccc3ncnc(Nc4ccc(OCc5cccc(F)c5)c(Cl)c4)c3c2)o1 [Lapatinib] (partner 2 µM)
How it was run: as §1

XMD14-99 + Navitoclax = compound: CN1CCN(CC1)C2=CC(=C(C=C2)NC3=NC(=C(S3)C(=O)C4=C(C=CC=C4Cl)Cl)N)OC [XMD14-99] + CC1(C)CCC(c2ccc(Cl)cc2)=C(CN2CCN(c3ccc(C(=O)NS(=O)(=O)c4ccc(N[C@H](CCN5CCOCC5)CSc5ccccc5)c(S(=O)(=O)C(F)(F)F)c4)cc3)CC2)C1 [Navitoclax] (partner 0.5 µM)
How it was run: as §1

Cell Line	relative viability (AZD1208 + Luminespib; first compound 0.08 µM)	relative viability (AZD1208 + Luminespib; first compound 0.253 µM)	relative viability (AZD1208 + Luminespib; first compound 0.8 µM)	relative viability (AZD1208 + Luminespib; first compound 2.53 µM)	relative viability (AZD1208 + Luminespib; first compound 8 µM)	relative viability (AZD1208 + Dasatinib; first compound 0.08 µM)	relative viability (AZD1208 + Dasatinib; first compound 0.253 µM)	relative viability (AZD1208 + Dasatinib; first compound 0.8 µM)	relative viability (AZD1208 + Dasatinib; first compound 2.53 µM)	relative viability (AZD1208 + Dasatinib; first compound 8 µM)	relative viability (XMD14-99 + Lapatinib; first compound 0.08 µM)	relative viability (XMD14-99 + Lapatinib; first compound 0.8 µM)	relative viability (XMD14-99 + Lapatinib; first compound 2.53 µM)	relative viability (XMD14-99 + Lapatinib; first compound 8 µM)	relative viability (XMD14-99 + Navitoclax; first compound 0.08 µM)	relative viability (XMD14-99 + Navitoclax; first compound 0.8 µM)	relative viability (XMD14-99 + Navitoclax; first compound 2.53 µM)	relative viability (XMD14-99 + Navitoclax; first compound 8 µM)
SW 1573	0.292	0.429	0.198	0.152	0.208	0.404	0.537	0.438	0.586	0.319	1.06	1.17	1.21	0.985	0.961	1.15	1.05	0.765
NCI-H1650	0.208	0.151	0.188	0.211	0.204	0.267	0.311	0.255	0.261	0.296	0.702	1.03	0.725	0.619	1.15	1.44	0.992	1.04
NCI-H2023	0.677	0.75	0.588	0.597	0.416	0.506	0.614	0.457	0.472	0.493	0.737	0.989	0.828	0.372	0.985	0.959	0.953	0.849
LOU-NH91	0.34	0.342	0.365	0.313	0.322	0.57	0.551	0.496	0.496	0.491	0.706	0.841	0.76	0.64	0.662	0.758	0.685	0.613
NCI-H3122	0.0933	0.129	0.0763	0.0991	0.0841	0.833	0.75	0.642	0.618	0.0921	0.982	0.965	0.879	0.746	0.989	0.945	0.902	0.724
LCLC-97TM1	0.829	0.754	0.604	0.632	0.727	0.88	0.827	0.82	0.631	0.891	1.06	0.815	0.786	0.583	0.43	0.455	0.268	0.382
NCI-H647	0.266	0.16	0.294	0.154	0.146	0.119	0.226	0.106	0.132	0.169	1.11	1.03	1.13	0.842	1.08	1.19	1.16	0.974
NCI-H838	0.294	0.211	0.252	0.327	0.22	0.329	0.365	0.272	0.311	0.274	0.947	0.993	0.851	0.69	1.15	1.11	1.1	0.747
H3255	0.872	0.982	0.698	0.901	0.842	0.438	0.413	0.362	0.385	0.43	0.234	0.252	0.326	0.164	0.542	0.654	0.493	0.32
SK-MES-1	0.771	0.736	0.607	0.689	0.531	0.336	0.336	0.284	0.341	0.306	0.416	0.46	0.432	0.403	1.26	1.18	1.05	0.821
NCI-H1437	1.13	1.17	1.2	1.24	1.22	0.495	0.297	0.337	0.296	0.337	0.804	0.745	0.573	0.458	1.06	1	0.913	0.629
LU99A	0.306	0.292	0.204	0.182	0.238	0.451	0.556	0.363	0.572	0.389	0.94	0.976	0.879	0.695	0.766	0.776	0.786	0.725
HCC-827	0.735	0.677	0.307	0.373	0.408	0.286	0.297	0.263	0.255	0.247	0.182	0.205	0.188	0.197	1.06	0.99	0.793	0.873
LK-2	0.17	0.187	0.2	0.184	0.17	0.273	0.224	0.17	0.167	0.178	0.801	1.01	0.823	0.949	0.767	0.883	1.02	0.91
BEN	0.254	0.271	0.285	0.244	0.303	0.334	0.243	0.285	0.299	0.314	0.738	0.825	0.661	0.627	0.0784	0.0577	0.0776	0.0694
NCI-H2347	0.416	0.625	0.415	0.371	0.306	0.306	0.339	0.339	0.321	0.257	0.957	0.907	0.793	0.659	0.736	0.825	0.699	0.488
NCI-H1395	0.705	0.784	0.608	0.539	0.553	0.453	0.373	0.36	0.38	0.356	0.985	0.958	1.04	0.809	1.06	1.11	1.09	0.902
